Measured values as given in ChEMBL document CHEMBL1124762, “Potential antitumor agents. 60. Relationships between structure and in vivo colon 38 activity for 5-substituted 9-oxoxanthene-4-acetic acids” (1990).

Key:
Type in all cases: functional, Mus musculus
MC-38 [1] = assay: Optimal dose 24 hr after intraperitoneal administration against C38 colon tumor cells in mice.
MC-38 [2] = assay: Percent necrosis activity against subcutaneous C38 colon tumor cells in vivo; set-up: concentration or dose not given beside the values
MC-38 [3] = assay: Percent necrosis activity against subcutaneous C38 colon tumor cells in vivo; range is 50-90%

`O=C(O)Cc1cccc2c(=O)c3cccnc3oc12` was tested, and the OD (MC-38 [1]) was 750 mg/kg.

For `CCOc1cccc2c(=O)c3cccc(CC(=O)O)c3oc12`, the OD (MC-38 [1]) was 330 mg/kg and the Activity (MC-38 [2]) was >90%.

In the case of `COc1cccc2c(=O)c3cccc(CC(=O)O)c3oc12`, the OD (MC-38 [1]) is reported as 150 mg/kg and the Activity (MC-38 [3]) is reported as 90%.

For `Cc1cccc2c(=O)c3cccc(CC(=O)O)c3oc12`, the OD (MC-38 [1]) was 45 mg/kg and the Activity (MC-38 [2]) was >90%.

`CC(=O)Nc1cccc2c(=O)c3cccc(CC(=O)O)c3oc12` was tested, and the OD (MC-38 [1]) was 330 mg/kg.

For `CCCOc1cccc2c(=O)c3cccc(CC(=O)O)c3oc12`, the OD (MC-38 [1]) was 150 mg/kg and the Activity (MC-38 [3]) was 90%.

`O=C(O)Cc1cccc2c(=O)c3cccc(O)c3oc12` was tested, and the OD (MC-38 [1]) was 330 mg/kg.

`O=C(O)Cc1cccc2c(=O)c3cccc(Cl)c3oc12` was tested, and the OD (MC-38 [1]) was 150 mg/kg and the Activity (MC-38 [2]) was >90%.

With `O=C(O)Cc1cccc2c(=O)c3cccc([N+](=O)[O-])c3oc12` the OD (MC-38 [1]) was 330 mg/kg and the Activity (MC-38 [3]) was 90%.

In the case of `O=C(O)Cc1cccc2c(=O)c3cccc(-c4ccccc4)c3oc12`, the OD (MC-38 [1]) is reported as 750 mg/kg.

In the case of `Nc1cccc2c(=O)c3cccc(CC(=O)O)c3oc12`, the OD (MC-38 [1]) is reported as 1125 mg/kg and the Activity (MC-38 [3]) is reported as 90%.

In the case of `CCc1cccc2c(=O)c3cccc(CC(=O)O)c3oc12`, the OD (MC-38 [1]) is reported as 100 mg/kg and the Activity (MC-38 [2]) is reported as >90%.

Compound `O=C(O)Cc1cccc2c(=O)c3cccc(C(F)(F)F)c3oc12` has an OD (MC-38 [1]) of 220 mg/kg and an Activity (MC-38 [3]) of 90%.

`O=C(O)Cc1cccc2c(=O)c3ccccc3oc12` was tested, and the OD (MC-38 [1]) was 220 mg/kg and the Activity (MC-38 [2]) was >90%.

`O=C(O)Cc1cccc2c(=O)c3cccc(F)c3oc12` was tested, and the OD (MC-38 [1]) was 330 mg/kg.

`O=C(O)Cc1cccc2c(=O)c3cccc(CC(=O)O)c3oc12` showed an OD (MC-38 [1]) of 330 mg/kg.

`O=C(O)Cc1cccc2c(=O)c3cccc(Br)c3oc12` gave an OD (MC-38 [1]) of 100 mg/kg.

Work on `CCCCOc1cccc2c(=O)c3cccc(CC(=O)O)c3oc12` yielded an OD (MC-38 [1]) of 220 mg/kg and an Activity (MC-38 [3]) of 90%.
